Experimental data as given in paper PMC4807248 (The Journal of Biological Chemistry, 2016).

T1: PqsC^C129A (P. aeruginosa PAO1, UniProt Q9I4X1 2-348, C129A)
T1 construct: also called PqsC subunit of PqsBC^C129A
T1 sequence: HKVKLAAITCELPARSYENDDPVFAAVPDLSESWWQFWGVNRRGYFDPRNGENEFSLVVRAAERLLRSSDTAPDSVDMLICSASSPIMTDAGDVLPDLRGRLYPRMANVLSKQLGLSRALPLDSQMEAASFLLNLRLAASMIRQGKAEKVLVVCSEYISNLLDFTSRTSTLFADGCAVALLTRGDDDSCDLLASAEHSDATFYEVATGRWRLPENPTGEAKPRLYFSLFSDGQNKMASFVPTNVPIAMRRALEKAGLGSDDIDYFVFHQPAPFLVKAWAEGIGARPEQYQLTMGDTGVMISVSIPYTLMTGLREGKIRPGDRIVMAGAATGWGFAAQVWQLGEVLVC


What was measured:
PqsBC [1] = biological target: T2, PqsBC (Pseudomonas aeruginosa, UniProt Q9I4X1, V299N); test: biochemical
T2 construct: gene pqsC

PqsBC [2] = biological target: T3, PqsBC (Pseudomonas aeruginosa, UniProt Q9I4X1, C129S); test: biochemical
T3 construct: gene pqsC

PqsBC [3] = biological target: T4, PqsBC (Pseudomonas aeruginosa, UniProt Q9I4X1, C129A); test: biochemical
T4 construct: gene pqsC

PqsBC [4] = biological target: T5, PqsBC (Pseudomonas aeruginosa, UniProt Q9I4X1, H269A); test: biochemical
T5 construct: gene pqsC

PqsC^C129A = biological target: T1, PqsC^C129A; test: crystal structure; PqsBC^C129A crystallised in 25% PEG 3350, 0.1 M Tris pH 8.3, 0.2 M NaCl; 2.0 Å; four copies of PqsB and four of PqsC in the asymmetric unit; conditions: both partners purified

T4 sequence (Q9I4X1 whole entry, stated change not applied, one chain of several): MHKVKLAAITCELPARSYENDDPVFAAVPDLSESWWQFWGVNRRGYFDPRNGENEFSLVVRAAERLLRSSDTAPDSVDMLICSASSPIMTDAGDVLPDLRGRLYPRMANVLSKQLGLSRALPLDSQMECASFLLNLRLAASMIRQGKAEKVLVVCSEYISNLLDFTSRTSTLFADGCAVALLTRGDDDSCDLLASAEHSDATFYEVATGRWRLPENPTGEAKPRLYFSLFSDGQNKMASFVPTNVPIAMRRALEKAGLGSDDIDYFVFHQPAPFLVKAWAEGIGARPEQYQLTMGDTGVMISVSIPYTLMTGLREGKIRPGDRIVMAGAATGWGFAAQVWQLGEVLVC
T3 sequence (Q9I4X1 whole entry, stated change not applied, one chain of several): as above
T2 sequence (Q9I4X1 whole entry, stated change not applied, one chain of several): as above
T5 sequence (Q9I4X1 whole entry, stated change not applied, one chain of several): as above

Molecule | Kd (PqsBC [1]) [µM] | Kd (PqsBC [2]) [µM] | Kd (PqsBC [3]) [µM] | Kd (PqsBC [4]) [µM] | binding result (PqsC^C129A)
Nc1ccccc1C(=O)CC(=O)O [2-aminobenzoylacetate] | > 1000 | 411 ± 43 | 330 ± 30 | 198 ± 11 | –
CC(=O)c1ccccc1N [2-aminoacetophenone] | > 1000 | 170 ± 10 | 158 ± 12 | 117 ± 6 | –
PqsB (natural protein, also called PqsB subunit of PqsBC) MLIQAVGVNLPPSYVCLEGPLGGERPRAQGDEMLMQRLLPAVREALDEAAVKPEEIDLIVGLALSPDHLIENRDIMAPKIGHPLQKVLGANRAHVFDLTDSSLARALYVVDTLASDQGYRNVLVVRGESSQGLEVDSESGFALADGALALLCRPTGKAAFRRGALGGDPAQEWLPLSIPLNTDIRQVGDVKGHLNLPAQPGLPEAVRAGFTRLAGDFPQLNWVREEWFGQGRPDGRCLGPFELASQLRAAQRDRLDELLLISFDPFGMVVEGVTLELAGEAHA | – | – | – | – | binds
